Results as given in patent US20050234046A1 (Kalypsys, Inc., priority 2004, published 2005).

Assays:
Test in all cases: Transient transfection (transactivation) assay in CV-1 cells, GAL4-PPAR chimera, luciferase reporter
Assay type in all cases: cell-based
[1] = target: T1, PPAR gamma (Homo sapiens, UniProt P37231)
T1 construct: expressed in transfected cells; host or cells: CV-1 cells
T1 sequence (P37231 238-503 limits assumed): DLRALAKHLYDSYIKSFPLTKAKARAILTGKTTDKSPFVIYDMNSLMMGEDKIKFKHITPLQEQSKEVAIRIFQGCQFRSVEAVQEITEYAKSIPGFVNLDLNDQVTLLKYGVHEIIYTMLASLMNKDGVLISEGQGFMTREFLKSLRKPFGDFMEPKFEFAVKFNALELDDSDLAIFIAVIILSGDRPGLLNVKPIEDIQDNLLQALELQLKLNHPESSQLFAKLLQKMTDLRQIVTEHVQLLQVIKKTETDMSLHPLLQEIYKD

[2] = target: T2, PPAR delta (Homo sapiens, UniProt Q03181)
T2 construct: expressed in transfected cells; host or cells: CV-1 cells
T2 sequence (Q03181 211-439 limits assumed): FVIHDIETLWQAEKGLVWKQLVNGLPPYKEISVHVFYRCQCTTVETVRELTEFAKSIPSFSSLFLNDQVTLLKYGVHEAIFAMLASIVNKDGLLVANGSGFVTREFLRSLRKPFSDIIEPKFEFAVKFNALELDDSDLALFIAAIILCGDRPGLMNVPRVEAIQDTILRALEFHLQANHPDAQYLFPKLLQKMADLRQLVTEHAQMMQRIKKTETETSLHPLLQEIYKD

[3] = target: T3, PPAR alpha (Homo sapiens, UniProt Q07869)
T3 construct: expressed in transfected cells; host or cells: CV-1 cells
T3 sequence (Q07869 239-466 limits assumed): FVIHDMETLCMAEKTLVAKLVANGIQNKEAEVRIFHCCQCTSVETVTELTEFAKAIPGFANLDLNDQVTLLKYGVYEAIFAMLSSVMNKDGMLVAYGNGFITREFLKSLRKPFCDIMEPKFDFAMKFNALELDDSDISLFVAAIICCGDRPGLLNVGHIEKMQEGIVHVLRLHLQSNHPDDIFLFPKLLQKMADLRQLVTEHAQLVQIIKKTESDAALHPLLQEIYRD
Excerpt: Compounds may be screened for functional potency in transient transfection assays in CV-1 cells or other cell types for their ability to activate the PPAR subtypes (transactivation assay). A previously established chimeric receptor system was utilized to allow comparison of the relative transcriptional activity of the receptor subtypes on the same synthetic response element and to prevent endogenous receptor activation from complicating the interpretation of results. See, for example; Lehmann, J. M.; Moore, L. B.; Smith-Oliver, T. A; Wilkinson, W. O.; Willson, T. M.; Kliewer, S. A., An antidiabetic thiazolidinedione is a high affinity ligand for peroxisome proliferatur-activated receptor γ (PPARγ), J. Biol. Chem., 1995, 270, 12953-6. The ligand binding domains for murine and human PPAR-alpha, PPAR-gamma, and PPAR-delta are each fused to the yeast transcription factor GAL4 DNA binding domain. CV-1 cells were transiently transfected with expression vectors for the respective PPAR chimera along with a reporter construct containing four or five copies of the GAL4 DNA binding site driving expression of luciferase. After 8-16 h, the cells are replated into multi-well assay plates and the media is exchanged to phenol-red free DME medium supplemented with 5% delipidated calf serum. 4 hours after replating, cells were treated with either compounds or 1% DMSO for 20-24 hours. Luciferase activity was then assayed with Britelite (Perkin Elmer) following the manufacturer's protocol and measured with either the Perkin Elmer Viewlux or Molecular Devices Acquest Xsee, for example, Kliewer, S. A., et. al. Cell 1995, 83, 813-819). Rosiglitazone is used as a positive control in the hPPAR-γ assay. Wy-14643 and GW7647 is used as a positive control in the hPPAR-α assay. GW501516 is used as the positive control in the hPPAR-δ assay.
Compounds of Examples 1-233 were assayed to measure their biological activity with respect to their EC50 values and efficacy for modulating PPAR-alpha, PPAR-gamma, and PPAR-delta as set forth in Table 3.

Structure (SMILES)	EC50 [1]	EC50 [2]	EC50 [3]
Cc1cc(S(=O)(=O)N2[C@H](C)CN(c3ccc(OC(F)(F)F)cc3)C[C@@H]2C)cc(CC(=O)O)c1Br [Example 198, {2-Bromo-5-[2,6-dimethyl-4-(4-trifluoromethoxy-phenyl)-piperazine-1-sulfonyl]-3-methyl-phenyl}-acetic acid]	5 to 100 µM	< 5 µM	5 to 100 µM
Cc1ccc(S(=O)(=O)N2CCN(c3ccc(C(F)(F)F)c(F)c3)[C@@H](C)C2)cc1CC(=O)O [Example 90, {5-[4-(3-Fluoro-4-trifluoromethyl-phenyl)-3-(S)-methyl-piperazine-1-sulfonyl]-2-methyl-phenyl}-acetic acid]	5 to 100 µM	< 5 µM	< 5 µM
COc1ccc(N2CCN(S(=O)(=O)c3cccc(CC(=O)O)c3)CC2)cc1 [Example 124, {3-[4-(4-Methoxy-phenyl)-piperazine-1-sulfonyl]-phenyl}-acetic acid]	5 to 100 µM	5 to 100 µM	> 100 µM
COC(=O)[C@@H]1CN(S(=O)(=O)c2ccc(C)c(CC(=O)O)c2)CCN1c1ccc(C(F)(F)F)cn1 [Example 42, (S)-4-(3-Carboxymethyl-4-methyl-benzenesulfonyl)-1-(5-trifluoromethyl-pyridin-2-yl)-piperazine-2-carboxylic acid methyl ester]	5 to 100 µM	< 5 µM	> 100 µM
Cc1ccc(S(=O)(=O)N2CCN(c3ccc(C(F)(F)F)cn3)[C@@H](C)[C@H]2C)cc1CC(=O)O (mixture of isomers) [Example 104, RS and SR-{5-[2,3-Dimethyl-4-(5-trifluoromethyl-pyridin-2-yl)-piperazine-1-sulfonyl]-2-methyl-phenyl}-acetic acid]	< 5 µM	< 5 µM	5 to 100 µM
COc1ccc(N2CCN(S(=O)(=O)c3ccc(C)c(CC(=O)O)c3)CC2)cc1OC [Example 179, {5-[4-(3,4-Dimethoxy-phenyl)-piperazine-1-sulfonyl]-2-methyl-phenyl}-acetic acid]	> 100 µM	> 100 µM	> 100 µM
Cc1ccc(S(=O)(=O)N2CCN(c3ccc(C(F)(F)F)c(Cl)c3)CC2)cc1CC(=O)O [Example 93, {5-[4-(3-Chloro-4-trifluorometbyl-phenyl)-piperazine-1-sulfonyl]-2-methyl-phenyl}-acetic acid]	5 to 100 µM	< 5 µM	< 5 µM
COC(=O)[C@H]1CN(S(=O)(=O)c2ccc(C)c(CC(=O)O)c2)CCN1c1ccc(C(F)(F)F)cn1 [Example 41, (R)-4-(3-Carboxymethyl-4-methyl-benzenesulfonyl)- -(5-trifluoromethyl-pyridin-2-yl)-piperazine-2-carboxylic acid methyl ester]	5 to 100 µM	< 5 µM	> 100 µM
CCC1CN(c2ccc(C(F)(F)F)cn2)CCN1S(=O)(=O)c1ccc(C)c(CC(=O)O)c1 (stereo not drawn) [Example 7, {5-[2-Ethyl-4-(5-trifluoromethyl-pyridin-2-yl)-piperazine-1-sulfonyl]-2-methyl-phenyl)-acetic acid]	5 to 100 µM	< 5 µM	5 to 100 µM
Cc1ccc(S(=O)(=O)N2[C@H](C)CN(c3nc4ccccc4s3)C[C@@H]2C)cc1CC(=O)O [Example 25, [5-(4-Benzothiazol-2-yl-2,6-dimethyl-piperazine-1-sulfonyl)-2-methyl-phenyl]-acetic acid]	> 100 µM	5 to 100 µM	> 100 µM
Cc1ccc(S(=O)(=O)N2CCC(c3ccc(Cl)cc3)CC2)cc1CC(=O)O [Example 2, {5-[4-(4-Chlorophenyl)-piperidine-1-sulfonyl]-2-methyl-phenyl}-acetic acid]	> 100 µM	5 to 100 µM	> 100 µM
Cc1ccc(S(=O)(=O)N2CC=C(c3ccc(C(F)(F)F)cc3)CC2)cc1CC(=O)O [Example 45, {2-Methyl-5-[4-(4-trifluoromethyl-phenyl)-3,6-dihydro-2H-pyridine-1-sulfonyl]-phenyl}-acetic acid]	5 to 100 µM	< 5 µM	5 to 100 µM
Cc1ccc(S(=O)(=O)N2CCN(c3ncc(C(F)(F)F)cc3Cl)CC2)cc1CC(=O)O [Example 54, {5-[4-(3-Chloro-5-trifluoromethyl-pyridin-2-yl)-piperazine-1-sulfonyl]-2-methyl-phenyl}-acetic acid]	< 5 µM	< 5 µM	< 5 µM
Cc1ccc(S(=O)(=O)N2CCN(c3ccc(Cl)c(Cl)c3)[C@@H](C)C2)cc1CC(=O)O [Example 102, {5-[4-(3,4-Dichloro-phenyl)-3-(S)-methyl-piperazine-1-sulfonyl]-2-methyl-phenyl}-acetic acid]	5 to 100 µM	< 5 µM	5 to 100 µM
O=C(O)Cc1cc(S(=O)(=O)N2CCN(c3ccc(C(F)(F)F)cc3)CC2)ccc1O [Example 208, {5-[4-(4-trifluoromethyl-phenyl)-piperazine-1-sulfonyl]-2-hydroxy-phenyl}-acetic acid]	> 100 µM	< 5 µM	5 to 100 µM
Cc1ccc(S(=O)(=O)N2CCN(c3ccc(C(F)(F)F)cn3)CC2C(C)C)cc1CC(=O)O (stereo not drawn) [Example 6, {5-[2-Isopropyl-4-(5-trifluoromethyl-pyridin-2-yl)-piperazine-1-sulfonyl]-2-methyl-phenyl}-acetic acid]	5 to 100 µM	< 5 µM	5 to 100 µM
O=C(O)Cc1cccc(S(=O)(=O)N2CCN(c3ccccc3)CC2)c1 [Example 145, [3-(4-Phenyl-piperazine-1-sulfonyl)-phenyl]-acetic acid]	> 100 µM	5 to 100 µM	> 100 µM
Cc1ccc(S(=O)(=O)N2CCN(c3ccc(C(F)(F)F)cn3)CC2(C)C)cc1CC(=O)O [Example 39, {5-[2,2-Dimethyl-4-(5-trifluoromethyl-pyridin-2-yl)-piperazine-1-sulfonyl]-2-methyl-phenyl}-acetic acid]	< 5 µM	< 5 µM	> 100 µM
Cc1ccc(S(=O)(=O)N2C[C@@H]3C[C@H]2CN3c2cccc(F)c2)cc1CC(=O)O [Example 10, S,S-{5-[4-(3-Fluorophenyl)-2,5-diaza-bicyclo[2.2.1]heptane-1-sulfonyl]-2-methyl-phenyl}acetic acid]	> 100 µM	5 to 100 µM	> 100 µM
Cc1cc(CC(=O)O)cc(S(=O)(=O)N2CCN(c3ccc(OC(F)(F)F)cc3)[C@@H](C)C2)c1 [Example 224, {3-Methyl-5-[3-(s)-methyl-4-(4-trifluoromethoxy-phenyl)-piperazine-1-sulfonyl]-phenyl}-acetic acid]	5 to 100 µM	< 5 µM	5 to 100 µM
CC(C)(OCc1cccc(S(=O)(=O)N2CCN(c3ccc(C(F)(F)F)cc3)CC2)c1)C(=O)O [Example 212, 2-Methyl-2-{3-[4-(4-trifluoromethyl-phenyl)-piperazine-1-sulfonyl]-benzyloxy}-propionic acid]	5 to 100 µM	> 100 µM	5 to 100 µM
C[C@@H]1CN(c2ccc(C(F)(F)F)c(F)c2)C[C@H](C)N1S(=O)(=O)c1cccc(CC(=O)O)c1 [Example 113, {3-[4-(3-Fluoro-4-trifluoromethyl-phenyl)-2,6-dimethyl-piperazine-1-sulfonyl]-phenyl}-acetic acid]	> 100 µM	< 5 µM	5 to 100 µM
Cc1cc(CC(=O)O)cc(S(=O)(=O)N2[C@H](C)CN(c3ccc(C(F)(F)F)c(Cl)c3)C[C@@H]2C)c1 [Example 112, {3-[4-(3-Chloro-4-trifluoromethyl-phenyl)-2,6-dimethyl-piperazine-1-sulfonyl]-5-methyl-phenyl}-acetic acid]	> 100 µM	< 5 µM	5 to 100 µM
